In patent publication US11292807B2 (OCEANS LTD., priority 2015, dated 2022):
Where “and” joins values, the source holds several entries; their conditions need not be identical. Identical values can stand only once. Like-named read-outs stand apart in the source and are kept apart here.

Legend:
[1] = system: SKOV3 (ovarian adenocarcinoma); assay: CIMA assay, cell viability, SKOV3; conditions: SKOV
Experimental: (§1) Stock solutions of the extracts were prepared in dimethylsulfoxide (DMSO) at 10 mg/mL and stored in 200 μl aliquots at −20° C. until analysis. This preparation ensured that the DMSO delivered to cells in culture never exceeded 1%.
(§2) Prepared extracts were assessed following chronic exposure conditions in which cells were seeded at 2×10^3 cells/well (96 well-plate) and incubated with test compounds for 72 h. Each compound was evaluated over a range of concentrations (0, 10, 25, 50 or 100 μg/ml). Cell proliferation was initially assessed using a standard colorimetric indicator of metabolic activity (CIMA) assay. In this assay, tetrazole reduction was evaluated as a measure of metabolic function that evaluates mitochondrial activity to determine the extent of cell proliferation within a culture. This assay is based on the reduction of yellow tetrazolium salt to purple formazan by mitochondrial reductases enzyme in viable cells, resulting in a color changed that confers a change in absorbance.

[2] = system: MCF7 (mammary gland adenocarcinoma); assay: CIMA assay, cell viability, MCF7; assay type: cell-based, human; conditions: SDS 5% control
Experimental: as §1, §2

[3] = system: CCD1079SK (fibroblast, noncancerous but proliferating); assay: CIMA assay, cell viability, CCD1079SK; conditions: for Fold change in viability AVG / Average cell viability: CCD
[4] = system: THP-1 (acute monocytic leukemia); assay: CIMA assay, cell viability, THP-1; conditions: THP-1
[5] = system: SKOV3 (ovarian adenocarcinoma)
Experimental: as §1, §2

A549 (lung carcinoma) = assay: CIMA assay (colorimetric indicator of metabolic activity), cell viability, A549; conditions: A549; for Average cell viability: unit assumed
[6] = system: U373 (glioblastoma-astrocytoma); assay: CIMA assay, cell viability, U373; conditions: for Fold change in viability AVG / Average cell viability: U373
PC3 [7] = assay: CIMA assay, cell viability, PC3; conditions: PC3
MDA-MB = conditions: MDA-MB
PC3 [8] = system: PC3

**Q.** With `CCCCCCCCCCCCOS(=O)(=O)[O-].[Na+]` [SDS, reference compound] as the compound, how does the “Fold change in viability AVG” value ([1]; positive control 250 ug/mL) read?
**A.** 0.10

**Q.** What about the “Fold change in viability AVG” value ([1]; positive control SDS 250 ug/mL) of the same compound?
**A.** 0.10

**Q.** And the “AVG (CIMA assay, cell viability)” value [2]?
**A.** 49.9

**Q.** And the “viability (AVG)” value [2]?
**A.** 44.1

**Q.** What about the “viability (AVG)” value ([3]; CCD1079SK, SDS 5% control) of the same compound?
**A.** 9.4

**Q.** What about the “AVG (CIMA assay, cell viability)” value ([3]; CCD10795K, SDS 5% control) of the same compound?
**A.** 11.3

**Q.** And the “Fold change in viability AVG” value ([3]; positive control 250 ug/mL)?
**A.** 0.06

**Q.** And the Average cell viability ([3]; positive control 250 ug/ml)?
**A.** 5%

**Q.** And the “Fold change in viability AVG” value ([3]; positive control SDS 250 ug/mL)?
**A.** 0.06

**Q.** And the Average cell viability ([3]; positive control SDS 250 ug/ml)?
**A.** 5%

**Q.** And the “AVG (CIMA assay, cell viability)” value ([4]; SDS 5% control)?
**A.** 36.2

**Q.** And the “viability (AVG)” value ([4]; SDS 5% control)?
**A.** 20.3

**Q.** What about the “Fold change in viability AVG” value ([4]; positive control 250 ug/mL) of the same compound?
**A.** 0.18

**Q.** And the Average cell viability ([4]; positive control 250 ug/ml)?
**A.** 16%

**Q.** And the “Fold change in viability AVG” value ([4]; positive control SDS 250 ug/mL)?
**A.** 0.18

**Q.** What about the Average cell viability ([4]; positive control SDS 250 ug/ml) of the same compound?
**A.** 16%

**Q.** And the “AVG (CIMA assay, cell viability)” value [5]?
**A.** 56.5

**Q.** And the viability (AVG) [5]?
**A.** 78.9%

**Q.** And the “viability (AVG)” value (A549 (lung carcinoma); SDS 5% control)?
**A.** 68.7

**Q.** What about the “Fold change in viability AVG” value (A549 (lung carcinoma); positive control 250 ug/mL) of the same compound?
**A.** 0.13

**Q.** What about the Average cell viability (A549 (lung carcinoma); positive control 250 ug/ml) of the same compound?
**A.** 11%

**Q.** And the “Fold change in viability AVG” value (A549 (lung carcinoma); positive control SDS 250 ug/mL)?
**A.** 0.13

**Q.** What about the Average cell viability (A549 (lung carcinoma); positive control SDS 250 ug/ml) of the same compound?
**A.** 11%

**Q.** And the “AVG (CIMA assay, cell viability)” value ([6]; U373, SDS 5% control)?
**A.** 58.1 and 44.1

**Q.** What about the “viability (AVG)” value ([6]; U373, SDS 5% control) of the same compound?
**A.** 48.4

**Q.** What about the “Fold change in viability AVG” value ([6]; positive control 250 ug/mL) of the same compound?
**A.** 0.05

**Q.** And the Average cell viability ([6]; positive control 250 ug/ml)?
**A.** 4%

**Q.** What about the “Fold change in viability AVG” value ([6]; positive control SDS 250 ug/mL) of the same compound?
**A.** 0.05

**Q.** What about the Average cell viability ([6]; positive control SDS 250 ug/ml) of the same compound?
**A.** 4%

**Q.** What about the “Fold change in viability AVG” value (PC3 [7]; positive control 250 ug/mL) of the same compound?
**A.** 0.08

**Q.** What about the “Fold change in viability AVG” value (PC3 [7]; positive control SDS 250 ug/mL) of the same compound?
**A.** 0.08

**Q.** And the “Fold change in viability AVG” value (MDA-MB; positive control 250 ug/mL)?
**A.** 0.16

**Q.** And the “Fold change in viability AVG” value (MDA-MB; positive control SDS 250 ug/mL)?
**A.** 0.16

**Q.** What about the viability (AVG) (PC3 [8]) of the same compound?
**A.** 77.3%
